From patent US6339045B1, “N-(unsubstituted or substituted)-4-substituted-6-(unsubstituted or substituted)phenoxy-2-pyridinecarboxamides or thiocarboxamides, processes for producing the same, and herbicides” (Kureha Kagaku Kogyo Kabushiki Kaisha, priority 1995, dated 2002)

Tests used:
Test in all cases: Herbicidal effect by foliage and soil treatment
Type in all cases: in vivo
Details in all cases: 10 g ai/10a, evaluated after 14 days
[1] = test system: common chickweed (Stellaria media)
Outline: (§1)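 Post-emergence spray, cotyledon to bifoliate stage; Tween 20/water vehicle, fixed dose per area; greenhouse 19–25 °C; 14 d; visual growth rating vs untreated.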

[2] = test system: cleavers (Galium aparine)
Outline: as §1

[3] = test system: ivyleafspeedwell (Veronica hederaefolia)
Outline: as §1

[4] = test system: kediock (Sinapis arvensis)
Outline: as §1

[5] = test system: velvetleaf (Abutilon theophrasti)
Outline: as §1

[6] = test system: redroot pigweed (Amaranthus retroflexus)
Outline: as §1

[7] = test system: common blackjack (Bidens pilosa)
Outline: as §1

[8] = test system: wild chamomile (Matricaria chamomilla)
Outline: as §1

[9] = test system: field bindweed (Convolvulus arvensis)
Outline: as §1

[10] = test system: sicklepod (Cassia obtusifolia)
Outline: as §1

[11] = test system: black nightshade (Solanum nigrum)
Outline: as §1

SMILES: COc1cc(Oc2cccc(C(F)(F)F)c2)nc(C(=O)N(C)OC)c1 [Compound I-203]
- herbicidal activity rating, SM (Stellaria media) [1]: 4 (percentage of weeds killed was not less than 60% and less than 80%)
- herbicidal activity rating, GA (Galium aparine) [2]: 5 (percentage of weeds killed was not less than 80%)
- herbicidal activity rating, VH (Veronica hederaefolia) [3]: 5 (percentage of weeds killed was not less than 80%)
- herbicidal activity rating, SA (Sinapis arvensis) [4]: 5 (percentage of weeds killed was not less than 80%)
- herbicidal activity rating, AT (Abutilon theophrasti) [5]: 4 (percentage of weeds killed was not less than 60% and less than 80%)
- herbicidal activity rating, AR (Amaranthus retroflexus) [6]: 5 (percentage of weeds killed was not less than 80%)
- herbicidal activity rating, BP (Bidens pilosa) [7]: 3 (percentage of weeds killed was not less than 40% and less than 60%)
- herbicidal activity rating, MC (Matricaria chamomilla) [8]: 2 (percentage of weeds killed was not less than 20% and less than 40%)
- herbicidal activity rating, CA (Convolvulus arvensis) [9]: 4 (percentage of weeds killed was not less than 60% and less than 80%)
- herbicidal activity rating, CO (Cassia obtusifolia) [10]: 5 (percentage of weeds killed was not less than 80%)
- herbicidal activity rating, SN (Solanum nigrum) [11]: 5 (percentage of weeds killed was not less than 80%)

SMILES: CCOCNC(=O)c1cc(OC)cc(Oc2cccc(C(F)(F)F)c2)n1 [Compound I-87, N-(ethoxymethyl)-4-methoxy-6-{3-(trifluoromethyl)phenoxy}-2-pyridine carboxamide]
- herbicidal activity rating, SM (Stellaria media) [1]: 5 (percentage of weeds killed was not less than 80%)
- herbicidal activity rating, GA (Galium aparine) [2]: 5 (percentage of weeds killed was not less than 80%)
- herbicidal activity rating, VH (Veronica hederaefolia) [3]: 5 (percentage of weeds killed was not less than 80%)
- herbicidal activity rating, SA (Sinapis arvensis) [4]: 5 (percentage of weeds killed was not less than 80%)
- herbicidal activity rating, AT (Abutilon theophrasti) [5]: 5 (percentage of weeds killed was not less than 80%)
- herbicidal activity rating, AR (Amaranthus retroflexus) [6]: 5 (percentage of weeds killed was not less than 80%)
- herbicidal activity rating, BP (Bidens pilosa) [7]: 5 (percentage of weeds killed was not less than 80%)
- herbicidal activity rating, MC (Matricaria chamomilla) [8]: 5 (percentage of weeds killed was not less than 80%)
- herbicidal activity rating, CA (Convolvulus arvensis) [9]: 5 (percentage of weeds killed was not less than 80%)
- herbicidal activity rating, CO (Cassia obtusifolia) [10]: 5 (percentage of weeds killed was not less than 80%)
- herbicidal activity rating, SN (Solanum nigrum) [11]: 5 (percentage of weeds killed was not less than 80%)

SMILES: CCOCONC(=O)c1cc(OC)cc(Oc2cccc(C(F)(F)F)c2)n1 [Compound I-105]
- herbicidal activity rating, SM (Stellaria media) [1]: 4 (percentage of weeds killed was not less than 60% and less than 80%)
- herbicidal activity rating, GA (Galium aparine) [2]: 5 (percentage of weeds killed was not less than 80%)
- herbicidal activity rating, VH (Veronica hederaefolia) [3]: 5 (percentage of weeds killed was not less than 80%)
- herbicidal activity rating, SA (Sinapis arvensis) [4]: 5 (percentage of weeds killed was not less than 80%)
- herbicidal activity rating, AT (Abutilon theophrasti) [5]: 4 (percentage of weeds killed was not less than 60% and less than 80%)
- herbicidal activity rating, AR (Amaranthus retroflexus) [6]: 5 (percentage of weeds killed was not less than 80%)
- herbicidal activity rating, BP (Bidens pilosa) [7]: 4 (percentage of weeds killed was not less than 60% and less than 80%)
- herbicidal activity rating, MC (Matricaria chamomilla) [8]: 3 (percentage of weeds killed was not less than 40% and less than 60%)
- herbicidal activity rating, CA (Convolvulus arvensis) [9]: 4 (percentage of weeds killed was not less than 60% and less than 80%)
- herbicidal activity rating, CO (Cassia obtusifolia) [10]: 5 (percentage of weeds killed was not less than 80%)
- herbicidal activity rating, SN (Solanum nigrum) [11]: 5 (percentage of weeds killed was not less than 80%)

SMILES: COc1cc(Oc2cccc(SC(F)(F)F)c2)nc(C(=O)NC(C)C)c1 [Compound I-40, N-(i-propyl)-4-methoxy-6-{3-(trifluoromethylmercapto)phenoxy}-2-pyridine carboxamide]
- herbicidal activity rating, SM (Stellaria media) [1]: 5 (percentage of weeds killed was not less than 80%)
- herbicidal activity rating, GA (Galium aparine) [2]: 5 (percentage of weeds killed was not less than 80%)
- herbicidal activity rating, VH (Veronica hederaefolia) [3]: 5 (percentage of weeds killed was not less than 80%)
- herbicidal activity rating, SA (Sinapis arvensis) [4]: 5 (percentage of weeds killed was not less than 80%)
- herbicidal activity rating, AT (Abutilon theophrasti) [5]: 5 (percentage of weeds killed was not less than 80%)
- herbicidal activity rating, AR (Amaranthus retroflexus) [6]: 5 (percentage of weeds killed was not less than 80%)
- herbicidal activity rating, BP (Bidens pilosa) [7]: 4 (percentage of weeds killed was not less than 60% and less than 80%)
- herbicidal activity rating, MC (Matricaria chamomilla) [8]: 4 (percentage of weeds killed was not less than 60% and less than 80%)
- herbicidal activity rating, CA (Convolvulus arvensis) [9]: 5 (percentage of weeds killed was not less than 80%)
- herbicidal activity rating, CO (Cassia obtusifolia) [10]: 5 (percentage of weeds killed was not less than 80%)
- herbicidal activity rating, SN (Solanum nigrum) [11]: 5 (percentage of weeds killed was not less than 80%)

SMILES: COc1cc(Oc2cccc(C(F)(F)F)c2)nc(C(=O)NC=C(Cl)Cl)c1 [Compound I-83, N-(2,2-dichlorovinyl)-4-methoxy-6-{3-(trifluoromethyl)phenoxy}-2-pyridine carboxamide]
- herbicidal activity rating, SM (Stellaria media) [1]: 5 (percentage of weeds killed was not less than 80%)
- herbicidal activity rating, GA (Galium aparine) [2]: 5 (percentage of weeds killed was not less than 80%)
- herbicidal activity rating, VH (Veronica hederaefolia) [3]: 5 (percentage of weeds killed was not less than 80%)
- herbicidal activity rating, SA (Sinapis arvensis) [4]: 5 (percentage of weeds killed was not less than 80%)
- herbicidal activity rating, AT (Abutilon theophrasti) [5]: 5 (percentage of weeds killed was not less than 80%)
- herbicidal activity rating, AR (Amaranthus retroflexus) [6]: 5 (percentage of weeds killed was not less than 80%)
- herbicidal activity rating, BP (Bidens pilosa) [7]: 5 (percentage of weeds killed was not less than 80%)
- herbicidal activity rating, MC (Matricaria chamomilla) [8]: 5 (percentage of weeds killed was not less than 80%)
- herbicidal activity rating, CA (Convolvulus arvensis) [9]: 5 (percentage of weeds killed was not less than 80%)
- herbicidal activity rating, CO (Cassia obtusifolia) [10]: 5 (percentage of weeds killed was not less than 80%)
- herbicidal activity rating, SN (Solanum nigrum) [11]: 5 (percentage of weeds killed was not less than 80%)

SMILES: COc1cc(Oc2cccc(C(F)(F)F)c2)nc(C(=O)NCCF)c1 [Compound I-74]
- herbicidal activity rating, SM (Stellaria media) [1]: 5 (percentage of weeds killed was not less than 80%)
- herbicidal activity rating, GA (Galium aparine) [2]: 5 (percentage of weeds killed was not less than 80%)
- herbicidal activity rating, VH (Veronica hederaefolia) [3]: 5 (percentage of weeds killed was not less than 80%)
- herbicidal activity rating, SA (Sinapis arvensis) [4]: 5 (percentage of weeds killed was not less than 80%)
- herbicidal activity rating, AT (Abutilon theophrasti) [5]: 5 (percentage of weeds killed was not less than 80%)
- herbicidal activity rating, AR (Amaranthus retroflexus) [6]: 5 (percentage of weeds killed was not less than 80%)
- herbicidal activity rating, BP (Bidens pilosa) [7]: 5 (percentage of weeds killed was not less than 80%)
- herbicidal activity rating, MC (Matricaria chamomilla) [8]: 5 (percentage of weeds killed was not less than 80%)
- herbicidal activity rating, CA (Convolvulus arvensis) [9]: 5 (percentage of weeds killed was not less than 80%)
- herbicidal activity rating, CO (Cassia obtusifolia) [10]: 5 (percentage of weeds killed was not less than 80%)
- herbicidal activity rating, SN (Solanum nigrum) [11]: 5 (percentage of weeds killed was not less than 80%)
